ChEMBL document CHEMBL1201862, “PubChem BioAssay data set” (2004)
Activity calls are given as the source filed them.

Tests used:
[1] = viability of PTEN-deleted HCT116 cells – cell-based, HCT116 PTEN knockout, dose response (AID 1047); format: functional;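 note: HCT116 colon tumor cells with PTEN knocked out; cells exposed to compound for 60 hours before readout; potency for loss of cell viability measured by luminescence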
[2] = viability of HCT116 lacking mutant beta-catenin – cell-based, human colon tumor, dose response (AID 1045); format: functional;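 note: HCT116 colon tumor cells with beta catenin knocked out; cells exposed to compound for 60 hours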
cells [3] = format: functional, cell-based
Nonstructural protein 1 = Nonstructural protein 1 (Influenza A virus, UniProt Q194T2); format: functional, Influenza A virus (A/California/07/2009(H1N1))
cells [4] = format: functional, cell-based; remark: listed apart in the source
INS1 = assay: INS-1E survival protection against cytokine death – cell-based, luminescence, retest, dose response (AID 449756); format: functional; details: Rattus norvegicus;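 note: cell death triggered by IL-1 beta plus TNF-alpha plus IFN-gamma mixture; protective hits raise ATP signal compared with cytokine alone wells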
[5] = target: T1, Mannose-6-phosphate isomerase (Homo sapiens, UniProt P34949); assay: MPI inhibition at elevated mannose 6-phosphate – biochemical, fluorescence intensity, high mannose 6-phosphate, primary screen (AID 1220)
T1 sequence (P34949 whole entry): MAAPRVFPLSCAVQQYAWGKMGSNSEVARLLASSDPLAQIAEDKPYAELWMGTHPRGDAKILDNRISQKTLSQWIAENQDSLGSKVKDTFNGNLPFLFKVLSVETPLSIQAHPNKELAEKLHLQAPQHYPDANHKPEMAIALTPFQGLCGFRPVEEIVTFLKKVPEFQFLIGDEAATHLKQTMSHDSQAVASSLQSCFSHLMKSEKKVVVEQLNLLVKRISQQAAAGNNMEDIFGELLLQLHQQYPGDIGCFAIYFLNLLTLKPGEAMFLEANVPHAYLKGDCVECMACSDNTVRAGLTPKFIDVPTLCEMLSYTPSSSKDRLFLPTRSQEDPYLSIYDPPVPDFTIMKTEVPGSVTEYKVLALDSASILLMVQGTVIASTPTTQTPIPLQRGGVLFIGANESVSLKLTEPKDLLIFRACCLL

[6] = viability loss in CEM21 cells – cell-based, CellTiter-Glo luminescence, cherry-picked, cytotoxicity control for viral fusion inhibitor project, dose response (AID 652042); format: functional;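 note: potency for signal decrease meaning cytotoxicity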
[7] = HIV-1 AD8 envelope cell-cell fusion blockers – cherry-pick, dose response (AID 652062); format: functional, cell-based;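 note: luciferase signal from cell-cell fusion driven by HIV-1 clade B AD8 Env; potency is for inhibitors of fusion seen as a drop in luminescence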
[8] = target: T2, Low molecular weight phosphotyrosine protein phosphatase (Homo sapiens, UniProt P24666); assay: inhibition of human LMPTP enzyme activity – biochemical, absorbance, pNPP substrate, LMPTP-A isoform, set 2, orthogonal assay, dose response (AID 743308); format: functional
T2 sequence (P24666 whole entry): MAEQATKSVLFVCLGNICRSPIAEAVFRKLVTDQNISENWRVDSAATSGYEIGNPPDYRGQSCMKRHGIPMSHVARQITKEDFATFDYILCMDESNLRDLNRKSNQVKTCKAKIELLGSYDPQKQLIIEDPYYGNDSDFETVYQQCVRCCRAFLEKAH

[9] = target: T2, Low molecular weight phosphotyrosine protein phosphatase; assay: inhibition of LMPTP-A enzymatic activity – biochemical, OMFP substrate, fluorescence intensity, set 2, dose response (AID 743307); format: functional
Bcl-2-related protein A1 [10] = target: T3, Bcl-2-related protein A1 (Mus musculus, UniProt Q07440); assay: displacement of Bid BH3 peptide from Bfl-1 – biochemical, fluorescence polarization, FITC-Bid, mouse, primary screen (AID 432)
T3 sequence (Q07440 whole entry): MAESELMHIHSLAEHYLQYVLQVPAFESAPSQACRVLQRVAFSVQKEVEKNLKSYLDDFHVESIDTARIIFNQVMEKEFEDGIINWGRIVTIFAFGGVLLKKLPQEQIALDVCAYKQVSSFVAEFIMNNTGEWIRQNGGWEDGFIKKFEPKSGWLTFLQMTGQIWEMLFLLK

[11] = target: T4, Dual specificity protein phosphatase 6 (Rattus norvegicus, UniProt Q64346); assay: inhibition of rat DUSP6 enzyme activity – biochemical, in vitro, primary screen (AID 425)
T4 sequence (Q64346 whole entry): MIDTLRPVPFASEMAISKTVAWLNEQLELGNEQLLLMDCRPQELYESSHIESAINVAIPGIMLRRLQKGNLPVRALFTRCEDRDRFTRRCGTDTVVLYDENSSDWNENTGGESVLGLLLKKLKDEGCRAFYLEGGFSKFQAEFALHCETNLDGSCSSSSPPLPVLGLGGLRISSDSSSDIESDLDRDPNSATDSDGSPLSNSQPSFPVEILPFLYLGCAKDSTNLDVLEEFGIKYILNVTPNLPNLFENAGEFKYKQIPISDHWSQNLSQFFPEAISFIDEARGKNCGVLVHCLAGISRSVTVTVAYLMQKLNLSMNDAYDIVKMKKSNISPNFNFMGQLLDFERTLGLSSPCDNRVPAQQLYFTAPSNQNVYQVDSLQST

Bcl-2-related protein A1 [12] = target: T3, Bcl-2-related protein A1; assay: small-molecule antagonists of Bfl-1/BH3 interaction – biochemical, TR-FRET, mouse Bfl-1, confirmation (AID 621);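 note: TR-FRET binding of GST-Bfl-1 to FITC-labelled Bid peptide via terbium antibody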
Danio rerio = assay: In Vivo Angiogenesis Dose-Response Confirmation. [Related pubchem assays: 732 (Assay preceding this confirmatory assay.)]; format: functional, organism-based
[13] = target: T5, High affinity choline transporter 1 (Homo sapiens, UniProt Q9GZV3); assay: human choline transporter blockers, potency – cell-based, 5-point CRC, membrane potential dye, dose response (AID 504840); format: functional
T5 sequence (Q9GZV3 whole entry): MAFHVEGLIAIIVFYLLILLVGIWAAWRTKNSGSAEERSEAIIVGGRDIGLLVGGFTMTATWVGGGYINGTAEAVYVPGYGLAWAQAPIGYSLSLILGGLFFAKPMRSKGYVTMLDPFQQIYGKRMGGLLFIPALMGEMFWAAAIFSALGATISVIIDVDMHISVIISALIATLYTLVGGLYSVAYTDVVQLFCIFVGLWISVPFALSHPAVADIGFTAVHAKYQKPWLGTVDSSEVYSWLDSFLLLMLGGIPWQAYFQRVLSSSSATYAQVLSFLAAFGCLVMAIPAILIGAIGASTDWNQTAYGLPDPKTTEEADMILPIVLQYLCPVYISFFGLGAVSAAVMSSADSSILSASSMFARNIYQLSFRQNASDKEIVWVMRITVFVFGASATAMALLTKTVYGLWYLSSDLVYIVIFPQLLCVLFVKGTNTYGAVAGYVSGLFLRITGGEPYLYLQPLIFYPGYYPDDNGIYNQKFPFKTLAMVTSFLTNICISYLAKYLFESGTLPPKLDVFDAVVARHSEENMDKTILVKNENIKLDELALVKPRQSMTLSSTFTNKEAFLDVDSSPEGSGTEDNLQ

HEK293 [14] = assay: NOD2 signaling inhibitors in MDP-stimulated cells, cell-based, uHTS, luminescence (AID 2001); format: functional; details: Homo sapiens
[15] = target: T6, Replicative DNA helicase DnaB (Mycobacterium tuberculosis, UniProt P9WMR3); assay: DnaB intein splicing inhibitors, dose response, biochemical, cell-free fluorescence (AID 449749); format: functional
T6 sequence (P9WMR3 whole entry): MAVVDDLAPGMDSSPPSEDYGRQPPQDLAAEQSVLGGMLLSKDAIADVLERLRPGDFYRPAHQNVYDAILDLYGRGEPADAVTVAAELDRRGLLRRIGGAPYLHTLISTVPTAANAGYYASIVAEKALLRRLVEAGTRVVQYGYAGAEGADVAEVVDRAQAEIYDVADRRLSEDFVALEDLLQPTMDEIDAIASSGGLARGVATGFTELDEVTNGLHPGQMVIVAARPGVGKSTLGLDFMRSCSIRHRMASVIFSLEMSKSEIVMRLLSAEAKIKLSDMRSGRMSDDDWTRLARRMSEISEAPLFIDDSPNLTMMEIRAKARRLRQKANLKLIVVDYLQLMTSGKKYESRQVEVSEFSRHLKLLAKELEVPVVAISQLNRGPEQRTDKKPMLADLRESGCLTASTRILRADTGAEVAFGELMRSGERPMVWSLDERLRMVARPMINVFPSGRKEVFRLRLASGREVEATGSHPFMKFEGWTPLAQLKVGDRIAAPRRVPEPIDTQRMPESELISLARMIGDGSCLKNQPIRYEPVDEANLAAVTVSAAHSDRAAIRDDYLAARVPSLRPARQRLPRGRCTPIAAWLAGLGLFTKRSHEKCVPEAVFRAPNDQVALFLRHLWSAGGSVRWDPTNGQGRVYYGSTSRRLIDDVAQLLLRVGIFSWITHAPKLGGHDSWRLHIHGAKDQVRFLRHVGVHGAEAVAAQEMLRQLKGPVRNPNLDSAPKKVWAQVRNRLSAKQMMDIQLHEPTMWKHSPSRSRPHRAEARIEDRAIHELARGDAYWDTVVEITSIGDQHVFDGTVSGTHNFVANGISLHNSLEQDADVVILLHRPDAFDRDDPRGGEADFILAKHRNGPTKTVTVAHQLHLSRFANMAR

HEK293 [16] = assay: inhibition of NOD1-driven NF-kB reporter – cell-based, luminescence, uHTS, primary screen (AID 1578); format: functional; details: Homo sapiens
[17] = Intein inhibitors as potential Tuberculosis drugs, a cytotoxicity screen. [Related pubchem assays (depositor defined):AID2221, AID2223, AID434968, AID435010, AID449749, AID449750, AID489010]; format: functional
HEK293 [18] = assay: cells; format: functional, cell-based; details: Homo sapiens
HEK293 [19] = assay: cells; format: functional, cell-based; details: Homo sapiens; remark: listed apart in the source
Protein RecA = target: T7, Protein RecA (Mycobacterium tuberculosis, UniProt P9WHJ3); assay: Fluorescence Cell-Free Homogeneous Dose Retest to Identify Inhibitors of RecA-Intein Splicing Activity. [Related pubchem assays (depositor defined):AID2097, AID2223, AID489010, AID492950]; format: functional
T7 sequence (P9WHJ3 whole entry): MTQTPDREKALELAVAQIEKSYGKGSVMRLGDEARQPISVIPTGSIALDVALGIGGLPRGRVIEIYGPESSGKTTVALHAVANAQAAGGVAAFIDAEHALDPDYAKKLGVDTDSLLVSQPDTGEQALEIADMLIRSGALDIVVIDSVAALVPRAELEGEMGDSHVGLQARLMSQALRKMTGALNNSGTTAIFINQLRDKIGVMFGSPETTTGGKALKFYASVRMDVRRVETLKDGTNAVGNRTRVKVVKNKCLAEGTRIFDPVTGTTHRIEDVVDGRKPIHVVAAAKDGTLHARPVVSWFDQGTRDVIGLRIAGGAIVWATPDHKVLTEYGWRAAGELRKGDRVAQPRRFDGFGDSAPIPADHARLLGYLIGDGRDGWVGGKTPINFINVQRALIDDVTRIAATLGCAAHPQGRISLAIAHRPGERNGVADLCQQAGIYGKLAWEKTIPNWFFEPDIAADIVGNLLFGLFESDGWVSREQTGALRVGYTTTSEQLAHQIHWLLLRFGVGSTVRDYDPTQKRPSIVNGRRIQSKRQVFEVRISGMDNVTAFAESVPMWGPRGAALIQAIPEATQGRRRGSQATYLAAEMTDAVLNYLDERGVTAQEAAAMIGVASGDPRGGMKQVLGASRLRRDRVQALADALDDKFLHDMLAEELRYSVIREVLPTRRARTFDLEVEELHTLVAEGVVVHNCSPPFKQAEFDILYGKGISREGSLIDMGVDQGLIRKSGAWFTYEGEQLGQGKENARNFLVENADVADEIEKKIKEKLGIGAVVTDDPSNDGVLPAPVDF

HEK293 [20] = assay: cells; format: functional, cell-based; details: Homo sapiens; remark: listed apart in the source
[21] = viability loss in Vero cells – cytotoxicity control for Vif-APOBEC3G degradation inhibitor project, dose response (AID 1117358); format: functional; details: Vero
[22] = target: Nucleotide-binding oligomerization domain-containing protein 2 (Homo sapiens, UniProt Q9HC29); assay: inhibition of NOD2-driven NF-kB reporter – cell-based, luminescence, uHTS, HEK293 (AID 1566); format: functional
[23] = target: Solute carrier family 12 member 2/member 5 (Homo sapiens, UniProt P55011+Q9H2X9); assay: KCC2 and NKCC1 inhibition by rubidium flux, cell-based, NKCC1 counter-screen (AID 1734); format: functional, HEK293
NADPH oxidase 1 = NADPH oxidase 1 (Homo sapiens, UniProt Q9Y5S8); assay: Late-stage luminescence-based cell-based dose response assay to identify inhibitors of NADPH oxidase 1 (NOX1): Synthesized analogs 2.; format: functional
Sequence of NADPH oxidase 1 (Q9Y5S8 whole entry): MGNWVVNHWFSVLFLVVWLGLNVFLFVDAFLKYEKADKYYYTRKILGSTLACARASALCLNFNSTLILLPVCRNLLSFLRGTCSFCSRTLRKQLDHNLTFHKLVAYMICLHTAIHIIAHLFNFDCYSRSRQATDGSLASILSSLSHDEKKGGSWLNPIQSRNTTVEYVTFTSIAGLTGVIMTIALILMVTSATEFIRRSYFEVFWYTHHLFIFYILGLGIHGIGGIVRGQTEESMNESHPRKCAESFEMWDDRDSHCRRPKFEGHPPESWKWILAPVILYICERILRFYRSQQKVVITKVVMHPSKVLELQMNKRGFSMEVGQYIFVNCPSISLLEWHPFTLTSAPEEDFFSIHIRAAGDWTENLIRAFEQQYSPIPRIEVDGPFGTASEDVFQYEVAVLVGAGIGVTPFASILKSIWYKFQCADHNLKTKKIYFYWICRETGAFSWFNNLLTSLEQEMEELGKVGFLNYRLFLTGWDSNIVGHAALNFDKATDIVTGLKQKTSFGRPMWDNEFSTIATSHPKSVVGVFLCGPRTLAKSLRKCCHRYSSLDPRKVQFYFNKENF

Sequence of Nonstructural protein 1 (Q194T2 whole entry): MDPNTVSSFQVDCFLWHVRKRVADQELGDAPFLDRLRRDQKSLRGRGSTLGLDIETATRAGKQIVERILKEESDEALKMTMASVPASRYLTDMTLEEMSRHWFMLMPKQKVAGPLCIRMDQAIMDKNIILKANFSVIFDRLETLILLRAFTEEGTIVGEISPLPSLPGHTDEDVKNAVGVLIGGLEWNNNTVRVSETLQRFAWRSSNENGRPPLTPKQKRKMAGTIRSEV
Sequence of Nucleotide-binding oligomerization domain-containing protein 2 (Q9HC29 whole entry, the tested form may be a part): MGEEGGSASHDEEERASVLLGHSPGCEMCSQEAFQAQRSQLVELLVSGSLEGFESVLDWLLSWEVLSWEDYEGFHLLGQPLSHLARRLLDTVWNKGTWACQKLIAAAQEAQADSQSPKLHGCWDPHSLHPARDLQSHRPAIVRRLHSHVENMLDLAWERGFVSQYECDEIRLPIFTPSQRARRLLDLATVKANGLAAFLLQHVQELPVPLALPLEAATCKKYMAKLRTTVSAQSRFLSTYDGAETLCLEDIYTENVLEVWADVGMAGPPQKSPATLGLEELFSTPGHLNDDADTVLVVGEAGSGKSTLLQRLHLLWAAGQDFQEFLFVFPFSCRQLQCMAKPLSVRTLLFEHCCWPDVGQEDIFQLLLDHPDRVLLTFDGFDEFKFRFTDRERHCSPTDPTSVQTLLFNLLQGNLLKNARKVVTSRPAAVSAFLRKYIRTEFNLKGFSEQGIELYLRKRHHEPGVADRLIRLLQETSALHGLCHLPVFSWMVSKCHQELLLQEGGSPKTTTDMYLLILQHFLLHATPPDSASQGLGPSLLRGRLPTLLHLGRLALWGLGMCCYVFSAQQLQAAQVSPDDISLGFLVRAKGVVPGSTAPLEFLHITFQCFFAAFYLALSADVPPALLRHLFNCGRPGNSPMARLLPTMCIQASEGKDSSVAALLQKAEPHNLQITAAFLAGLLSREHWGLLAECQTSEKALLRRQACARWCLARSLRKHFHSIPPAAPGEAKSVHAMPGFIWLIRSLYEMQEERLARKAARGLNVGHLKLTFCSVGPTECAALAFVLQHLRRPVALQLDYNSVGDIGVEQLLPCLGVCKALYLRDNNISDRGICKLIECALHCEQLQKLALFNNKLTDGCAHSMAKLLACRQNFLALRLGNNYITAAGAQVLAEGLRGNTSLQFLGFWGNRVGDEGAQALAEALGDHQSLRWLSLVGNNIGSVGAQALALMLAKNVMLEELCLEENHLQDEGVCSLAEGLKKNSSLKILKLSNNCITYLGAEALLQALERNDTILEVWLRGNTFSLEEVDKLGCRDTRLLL

For `COc1ccccc1N1CCN(Cc2ccc(O)c3ncccc23)CC1`, the EC50 [1] was 2.25 µM (active), the EC50 [2] was 1.95 µM (active) and the EC50 (cells [3]) was > 350 µM (not active). The IC50 (Nonstructural protein 1) was 5.46 µM (active), the EC50 (cells [4]) was 12.1 µM (active) and the AC50 (INS1) was 2.27 µM (active). For the same compound, the IC50 [5] was 19.2 µM (active), the AC50 [6] was 3.39 µM (active) and the AC50 [7] was 29.6 µM (active).
For `CC1CCN(c2nc(-c3ccccc3)nc3ccccc23)CC1`, the IC50 [8] was > 80 µM (inactive) and the IC50 [9] was > 80 µM (inactive).
In the case of `N#Cc1c(N)sc(=S)c2c1CCN(Cc1ccccc1)C2`, the IC50 (Bcl-2-related protein A1 [10]) was > 100 µM (not active), the IC50 [11] was 10.8 µM (active) and the IC50 (Bcl-2-related protein A1 [12]) was > 100 µM (not active).
For `C[N+](C)(C)CCOC(=O)CBr` [E1001], the IC50 (Danio rerio) was 31.6 µM (not active) and the IC50 [13] was 14.1 µM (active).
With `CN(C1=C(NC(=O)c2ccc(Cl)cc2)C(=O)c2ccccc2C1=O)c1ccccc1` the EC50 [1] was 7.51 µM (active), the EC50 [2] was 8.39 µM (active) and the IC50 (HEK293 [14]) was 8.31 µM (active). The AC50 [15] was 3.94 µM (active), the EC50 (HEK293 [16]) was > 20 µM (inactive) and the IC50 (Nonstructural protein 1) was 7.27 µM (active). For the same compound, the CC50 [17] was 20.1 µM (active), the IC50 (HEK293 [18]) was > 20 µM (inactive) and the IC50 (HEK293 [19]) was 9.67 µM (active). The EC50 (Protein RecA) was 1.66 µM (active), the IC50 (HEK293 [20]) was 5.15 µM (active) and the AC50 (INS1) was 3.01 µM (active). The CC50 [21] was > 40 µM (active) and the EC50 [22] was 11.4 µM (active).
In the case of `O=S(=O)(NCc1ccccc1)c1ccc(Cl)c(S(=O)(=O)NCc2ccccc2)c1`, the IC50 [23] was 9.1 µM (active).
In the case of `O=C(Nc1c(F)cccc1F)N1c2ccccc2Sc2ccccc21`, the IC50 (NADPH oxidase 1) was 0.636 µM (active).
